The values below come from PMC7180452, “Purine and Purine Isostere Derivatives of Ferrocene: An Evaluation of ADME, Antitumor and Electrochemical Properties” (Molecules, 2020).

Data set [1] concerns normal skin fibroblasts (HFF). Briefly: Cytotoxicity on non-tumor cells, HFF. It is filed as cell-based, human. As to the method:
(§1) Antiproliferative activity of compounds 11a−11c, 12a−12c, 13a−13c, 14a−14c, 15a−15c, 16a, 23a−23c, 24a−24c, 25a−25c, 34a−34c and 35a−35c was evaluated in vitro on four human tumor cell lines (American Type Culture Collection, Manassas, VA, USA): metastatic colorectal adenocarcinoma (SW620), ductal pancreatic adenocarcinoma (CFPAC-1), hepatocellular carcinoma (HepG2) and cervical carcinoma (HeLa) as well as normal skin fibroblasts (HFF).

A short description of data set [2]: Square-wave and cyclic voltammetry on glassy carbon electrode. It is filed as physicochemical. The settings on record: SWV, 0.5 mol/L NaClO4, pH 9, vs Ag/AgCl. The source says:
The electrochemical properties of 6-chloro-7-deazapurine and 6-chloropurine derivatives of ferrocene 11c, 13a and 15b on a glassy carbon electrode were studied using cyclic (CV) and square-wave voltammetry (SWV) in aqueous electrolyte solutions over a wide pH range. The pH was varied from 2 to 10 in order to determine the effect of pH on the voltammograms (net peak currents and potentials). […] The pH of the solution affects the voltammetric response of this compound, i.e., the oxidation of evaluated compounds 11c, 13a and 15b is strongly dependent on it.
The forward (if) and backward (ib) components of the net response (Δi = if − ib) are shown as well (inset in Figure 2). […] The peak P1 occurs in all supporting electrolytes (i.e., at 2 ≤ pH ≤ 10), while the peak P2 is only observed at pH ≥ 9 (see Figure 1). The potential of peak P1 is pH-independent. Comparing to the literature data, peak P1 can be ascribed to the following charge transfer reaction [Fe^II(C5H5)2] ⇌ [Fe^III(C5H5)2]^+ + e^− [44, 48].
All chemicals used in the experiments were of the best grade commercially available (Sigma-Aldrich) and were used without further purification. Stock standard solutions of compounds 11c, 13a, 15b (c = 2.0 × 10^−3 mol/L) and 6-chloropurine (c = 1.2 × 10^−2 mol/L) were prepared from dry pure substances in dimethyl sulfoxide (DMSO, p.a.), purchased from Kemika (Zagreb, Croatia). Stock standard solution of ethynyl ferrocene (c = 1.1 × 10^−2 mol/L) was prepared from dry pure substance in ethanol (Kemika). For the supporting electrolyte, analytical grade NaClO4 (Kemika) was used. Water was deionized by the Millipore Milli-Q system to the resistivity ≥ 18 MΩcm. Voltammetric measurements were carried out using the computer-controlled electrochemical system „PGSTAT 101“ (Eco-Chemie, Utrecht, The Netherlands), controlled by the electrochemical software “NOVA 1.5”. A three-electrode system (BioLogic, Claix, France) with glassy carbon electrode (GCE) of 3 mm in diameter as a working electrode, Ag/AgCl (3 mol/L NaCl) as a reference electrode and a platinum wire as a counter electrode were used. All potentials were expressed versus Ag/AgCl (3 mol/L NaCl) reference electrode. The supporting electrolyte (0.5 mol/L NaClO4), adjusted to the desired pH value, was placed in the electrochemical cell and the required aliquot of the standard analyte solution was added. The solution in the electrochemical cell was degassed with high purity nitrogen for 10 min before measurement, and the nitrogen blanket was maintained thereafter. Before each run, the glassy carbon working electrode was polished with diamond suspension in spray (grain size 6 µm) and rinsed with ethanol and deionized water. All experiments were performed at room temperature. The presented results are reported as the mean value of three independent measurements.

Data set [3] in a line: Chrom logD determination (fast-gradient HPLC). The following applies: pH 7.4.
Description: The distribution coefficient Chrom logD, a parameter used to assess the lipophilicity of compounds [36, 37], was determined for novel purine and purine isosteres with a ferrocene motif as shown in Table 1.
The distribution coefficient, Chrom logD, was determined from compounds’ gradient retention times by employing a high-performance liquid chromatography method with fast acetonitrile gradient. Compounds were prepared for analysis in final concentration of 1.25 mM by dilution of 10 mM stock solutions in DMSO with acetonitrile. Aqueous mobile phase was 50 mM ammonium acetate adjusted with ammonia solution to pH 7.4 and the organic mobile phase was acetonitrile. A reversed phase HPLC column Luna C18, 50 × 3 mm i.d., 5 µm particle size (Phenomenex, Torrance, CA, USA) was used for analysis. Sample injection volume was 2 µL and the flow rate was 1 mL min^−1. All compounds were analysed in duplicates. Fast-gradient elution was as follows: from 0 to 100% of acetonitrile (0−3 min), 100% of acetonitrile (3.0−3.5 min), from 100 to 0% of acetonitrile (3.5−3.7 min), and re-equilibration with 100% of aqueous mobile phase (3.7−5.0 min). All measurements were performed on an HPLC-DAD instrument Agilent 1100 Series (Agilent Technologies, Santa Clara, CA, USA) coupled with a mass spectrometer Micromass Quattro API (Waters, MA, USA). MassLynx software, version 4.1 (Waters, Manchester, UK) was used for data acquisition and processing. Before compound analysis, a calibration step was performed. A set of standard compounds with literature CHI values [36] were plotted against gradient retention times to obtain a calibration equation, which was used to determine CHI value from the compounds’ retention times.
Data set [4] deals with metastatic colorectal adenocarcinoma (SW620). Briefly: In vitro antiproliferative activity, SW620. Format: cell-based, human. The following applies: SW620 cells. As for the experimental part:
as §1

The subject of data set [5] is ductal pancreatic adenocarcinoma (CFPAC-1). The data set is described as follows: In vitro antiproliferative activity, CFPAC-1. It is filed as cell-based, human. The settings on record: CFPAC-1 cells. As to the method:
as §1

Data set [6] deals with hepatocellular carcinoma (HepG2). Briefly: In vitro antiproliferative activity, HepG2. Format: cell-based, human. The following applies: HepG2 cells. As to the method: as §1

By IC50 is commonly meant the concentration that gives 50% inhibition. Regarding `Clc1ncnc2c1ccn2Cc1cn(-[c-]2cccc2)nn1.[Fe+2].c1cc[cH-]c1` [Compound 11c, 4-Chloro-7-[1-(1-ferrocenyl-1,2,3-triazol-1-yl)methyl]-7H-pyrrolo[2,3-d]pyrimidine], the IC50 in data set [1] came to 5.89 ± 1.88 µM; in data set [4], 9.07 ± 1.21 µM; in data set [5] it was 35 ± 5.44 µM; in data set [6] it was 31.9 ± 4.32 µM. Also, in data set [2], the “Oxidation peak P1 potential (ferrocene)” value was ~ 0.4 V. The “Oxidation peak P2 potential (triazole)” value in data set [2] was ~ 1.1 V. Besides, the “Chrom logD” value in data set [3] was 5.62.
As to `CC([c-]1cccc1)n1cc(Cn2cnc3ncnc(Cl)c32)nn1.[Fe+2].c1cc[cH-]c1` (stereo not drawn) [Compound 15b, 6-Chloro-7-[1-(1-ferrocenyl-1-methylmethyl-1,2,3-triazol-4-yl)methyl]-7H-purine], the 50% inhibitory concentration (IC50) in data set [1] was determined as 0.88 ± 1.06 µM; in data set [4] it was 15.5 ± 3.24 µM; in data set [5] it was 28.6 ± 2.68 µM; in data set [6] it was 37.1 ± 1.84 µM. The “Oxidation peak P1 potential (ferrocene)” value in data set [2] was ~ 0.4 V. The “Oxidation peak P2 potential (triazole)” value in data set [2] is listed as ~ 1.1 V. Moreover, the “Chrom logD” value in data set [3] is 4.15.
As for `Clc1ncnc2c1ncn2Cc1cn(C[c-]2cccc2)nn1.[Fe+2].c1cc[cH-]c1` [Compound 13a, 6-Chloro-9-[1-(1-ferrocenymethyl-1,2,3-triazol-4-yl)methyl]-9H-purine], the IC50 in data set [1] was determined as 3.98 ± 0.17 µM; in data set [4], 14.4 ± 3.02 µM; in data set [5] it was 22.8 ± 4.31 µM; in data set [6], 19.9 ± 5.12 µM. Also, the “Oxidation peak P1 potential (ferrocene)” value in data set [2] was ~ 0.4 V. In addition, in data set [2], the “Oxidation peak P2 potential (triazole)” value is listed as ~ 1.1 V. The “Chrom logD” value in data set [3] came out at 4.27.
